Test results published in PMC6389928, “Biomolecular Interaction, Anti-Cancer and Anti-Angiogenic Properties of Cobalt(III) Schiff Base Complexes” (Scientific Reports, 2019).
Read-outs that look alike come from different tables or passages of the source.

Tests used:
DNA = test: Viscosity measurement of DNA; assay type: binding; details: 30.0 ± 0.2 °C, increasing amounts of compound
Description: The mode of interaction between DNA and complexes has been further confirmed using viscosity measurements. The intercalation between DNA and metal complex causes lengthening of the DNA helix and increases DNA’s relative viscosity. Ethidium bromide (EB) is a well known DNA intercalator which was used as a standard to make sure our viscosity determination was working properly. […] The increase in relative viscosity follows the DNA-intercalating ability and the order of relative viscosity is EB > 2 > 1.
CD spectra of CT–DNA in the absence and presence of cobalt(III) complexes 1 and 2 were recorded in phosphate buffer. Each sample solution was scanned in the range of 200–320 nm, and final CD spectra were generated after averaging three scans subtracting the buffer background. Viscosity experiments were performed using an Ubbelohde viscometer at a constant temperature (30.0 ± 0.2 °C).

BSA = BSA (Bos taurus, UniProt P02769); details: for Quenching Constant (kq): τ0 assumed 10^−8 s; for ∆G° / ∆H° / ∆S°: BSA binding; for ∆H° / ∆S°: van't Hoff plot 285-299 K
Protocol: The obtained fluorescence quenching results were analyzed using the Stern-Volmer eqation, F0/F=1+Ksv[Q]kq=Ksv/τ0 where F0 and F are the fluorescence emission intensities of BSA in the absence and presence of complexes 1 and 2. KSV is the Stern-Volmer quenching constant, [Q] is concentration of the complexes 1 and 2, kq is the quenching rate constant of BSA and τ0 is the average lifetime of the emitter in the absence of quencher. The above equation was applied to determine KSV by linear regression of a plot of F0/F against [Q].
Normally, quenching can take place either as dynamic quenching, static quenching or a combination of both mechanisms. Static quenching refers to fluorophore-quencher complex formation in the ground state while dynamic quenching refers to a process in which the fluorophores and the quencher come into contact during the transient existence of the excited state[57],[58]. The plots of F0/F versus [Q]
For the static quenching process, the binding constant (Kb) and the number of binding sites (n) can be determined by the following equation[62] log[(F0−F)]/F=logKb+nlog[Q] where F0 and F are the fluorescence intensities of the emitter in the absence and presence of the quencher, respectively, and [Q] the concentration of the quencher. Thus, a plot of log F0 − F/F versus log [Q] (Fig. 3) was used to determine Kb.
In general, intermolecular interacting forces between a small molecule and a biomacromolecule include hydrogen bonding, van der Waals force, and electrostatic and hydrophobic interactions. The thermodynamic parameters, enthalpy change (ΔH°) and entropy change (ΔS°) of the binding are important for confirming the binding mode. For this reason, these thermodynamic parameters have been calculated using the equation, lnKb=−ΔH°/RT+ΔS°/RΔG°=ΔH°−TΔS°=−RTInKb where Kb is the binding constant at the corresponding temperature, and R is the gas constant. The ΔH° and ΔS° values are calculated from the slope and intercept from plotting ln Kb versus 1/T (Fig. 3).
The concentration of BSA prepared in PBS buffer (pH = 7.4) was determined spectrophotometrically using the extinction coefficient of 43,800 M^−1 cm^−1 at 280 nm[80]. The fluorescence spectra of BSA were recorded at room temperature with an excitation wavelength of BSA at 280 nm and the emission at 350 nm by keeping the concentration of BSA constant (1.35 × 10^−[…]) while increasing the cobalt(III) complex concentration regularly.

EB - DNA = test: Competitive binding with ethidium bromide: fluorescence quenching of EB - DNA; details: quenching of EB-DNA emission, F0/F vs [complex]/[DNA], λex 450 nm
Description: The complexes 1 and 2 are non-emissive in nature. […] In this study, changes in the intensity of the fluorescence emission band of EB - DNA complex were monitored after the addition of metal complexes 1 and 2 (Fig. 2). Upon increasing complex concentration in the DNA-EB solution, EB emission intensity was decreased. […] The resulting data (Table 1) of the complexes 1 and 2 with EB-DNA was processed from the standard Stern-Volmer equation[38], F0/F=1+Ksvr where F0 and F are the fluorescence emission intensities in the absence and presence of quencher (i.e. complexes 1 and 2), r is the ratio of concentration of the quencher. Ksv is the Stern-Volmer quenching constant.
For fluorescence quenching experiments, nucleic acids solution was pretreated with ethidium bromide (EB) for 30 min. Solutions of cobalt(III) complexes were then added to this mixture and their effect on the emission intensity was measured. The samples were excited at 450 nm and emission was observed between 500 and 750 nm.

A549 cells = test: Cell cycle analysis by flow cytometry; assay type: cell-based, Human; details: A549, IC50 concentrations, 24 h, propidium iodide, compared to control
Protocol: The possible cell cycle arrest was determined by flow cytometer which is used to distinguish and quantify the cells in different phases of the cell cycle. The cells were treated with the complexes 1 and 2 at the respective half maximal inhibitory concentrations. The cells were fixed, stained with propidium iodide and analysed for DNA/cell content as aspects of cell cycle distribution. The DNA histograms and the percentage of cells in each of the phases are given Fig. 5. […] The increase of cell accumulation in sub G0 - G1 phase indicated delay in progression of cell cycle. The cells thus inhibited in division end up in the apoptosis due to sub G0 − G1 check point arrest. […] In as much as apoptosis itself could be induced due to the DNA damage, necrosis is a clear indication of damage caused by the complexes to the cytosol.
Cell cycle analysis: Cell phase distribution was determined by flow cytometry with DNA staining to reveal the total amount of DNA[94]. […] After incubation, the cells were trypsinized, harvested, fixed in 1 mL 80% cold ethanol and incubated at 4 °C for 15 min. […] Cell cycle distribution was analyzed using FACS (fluorescent activated cell sorter) (Becton-Dickinson, Sanjose, CA, USA) with 15 mW, 488 nm argon ion laser. […] The data were acquired and analyzed using Dean-Jett-Fox algorithm.

Chain of BSA (P02769 25-607): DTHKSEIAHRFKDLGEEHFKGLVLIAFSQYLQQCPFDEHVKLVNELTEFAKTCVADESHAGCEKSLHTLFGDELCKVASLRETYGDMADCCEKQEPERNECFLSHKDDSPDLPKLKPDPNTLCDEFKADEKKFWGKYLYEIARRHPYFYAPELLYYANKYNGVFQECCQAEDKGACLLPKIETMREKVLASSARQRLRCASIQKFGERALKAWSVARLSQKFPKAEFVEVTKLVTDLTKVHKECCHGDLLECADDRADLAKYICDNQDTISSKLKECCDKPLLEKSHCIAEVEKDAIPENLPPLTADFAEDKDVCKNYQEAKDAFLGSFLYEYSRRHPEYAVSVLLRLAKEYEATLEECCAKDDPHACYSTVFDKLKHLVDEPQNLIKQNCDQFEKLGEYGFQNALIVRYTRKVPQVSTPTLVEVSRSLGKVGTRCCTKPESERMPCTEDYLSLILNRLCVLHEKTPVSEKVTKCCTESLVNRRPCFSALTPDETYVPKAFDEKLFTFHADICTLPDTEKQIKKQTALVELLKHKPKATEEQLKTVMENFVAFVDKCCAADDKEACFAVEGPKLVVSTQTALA

## CCCCCCCCCCCC[NH2+][Co-3]123([NH2+]CCCCCCCCCCCC)[O]c4ccccc4C=[N+]1CC[N+]2=Cc1ccccc1[O]3.[O-][Cl+3]([O-])([O-])[O-] [Complex 1, trans-[Co(salen)(DA)2](ClO4)]
DNA
  effect on relative viscosity of DNA: the relative viscosity of DNA increased
BSA; 285 K
  Quenching Constant (kq): 1.6763 10^13 M^−1 s^−1
  ∆G°: -6.238 kcal/mol
BSA; 292 K
  Quenching Constant (kq): 1.3531 10^13 M^−1 s^−1
  ∆G°: -6.7008 kcal/mol
BSA; 299 K
  Quenching Constant (kq): 1.0862 10^13 M^−1 s^−1
  ∆G°: -7.4297 kcal/mol
BSA
  ∆H°: +69.429 kJ mol^−1
  ∆S°: +335.928 J mol^−1 K^−1
EB - DNA
  Stern–Volmer constant (Ksv): 0.5694
A549 cells
  effect on cell cycle distribution: gradual increase in sub G0 − G1 and G2 − M phases

## CCCCCCCCCCCC[NH2+][Co-3]123([NH2+]CCCCCCCCCCCC)[O]c4ccccc4C=[N+]1c1ccccc1[N+]2=Cc1ccccc1[O]3.[O-][Cl+3]([O-])([O-])[O-] [Complex 2, trans-[Co(salophen)(DA)2](ClO4)]
DNA
  effect on relative viscosity of DNA: the relative viscosity of DNA increased
BSA; 285 K
  Quenching Constant (kq): 1.4802 10^13 M^−1 s^−1
  ∆G°: -5.6506 kcal/mol
BSA; 292 K
  Quenching Constant (kq): 1.2245 10^13 M^−1 s^−1
  ∆G°: -6.0217 kcal/mol
BSA; 299 K
  Quenching Constant (kq): 1.0114 10^13 M^−1 s^−1
  ∆G°: -6.9336 kcal/mol
BSA
  ∆H°: +85.617 kJ mol^−1
  ∆S°: +383.182 J mol^−1 K^−1
EB - DNA
  Stern–Volmer constant (Ksv): 0.6067
A549 cells
  effect on cell cycle distribution: gradual increase in sub G0 − G1 and G2 − M phases
